Source: PubChem BioAssay (NCI)
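48-hour exposure; five concentrations; linearly interpolated endpoints. At the GI50, growth is halved. At the TGI there is no net growth.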

Assays:
Assay in all cases: DTP human tumour cell line panel, 48 h
TK-10 renal = test system: TK-10 renal
MDA-MB-231 breast = test system: MDA-MB-231 breast
SW-620 colon = test system: SW-620 colon
KM12 colon = test system: KM12 colon
SF-295 CNS = test system: SF-295 CNS
UACC-62 melanoma = test system: UACC-62 melanoma
MDA-MB-435 = test system: MDA-MB-435
PC-3 prostate = test system: PC-3 prostate
HS 578T breast = test system: HS 578T breast
HT29 colon = test system: HT29 colon

SMILES	GI50 (TK-10 renal)	TGI (TK-10 renal)	GI50 (MDA-MB-231 breast)	TGI (MDA-MB-231 breast)	GI50 (SW-620 colon)	TGI (SW-620 colon)	GI50 (KM12 colon)	TGI (KM12 colon)	GI50 (SF-295 CNS)	TGI (SF-295 CNS)	GI50 (UACC-62 melanoma)	TGI (UACC-62 melanoma)	GI50 (MDA-MB-435)	TGI (MDA-MB-435)	GI50 (PC-3 prostate)	TGI (PC-3 prostate)	GI50 (HS 578T breast)	TGI (HS 578T breast)	GI50 (HT29 colon)	TGI (HT29 colon)
O=C(O)c1ccc(NCn2nc(-c3ccccc3O)oc2=S)cc1	> 100 µM	> 100 µM	16.1 µM	58.5 µM	38.9 µM	> 100 µM	> 100 µM	> 100 µM	> 100 µM	> 100 µM	34.1 µM	97.7 µM	> 100 µM	> 100 µM	59.9 µM	> 100 µM	> 100 µM	> 100 µM	38.6 µM	> 100 µM
NS(=O)(=O)c1ccc(-n2nc3c(c2-c2ccc(Cl)cc2)Cc2ccccc2-3)cc1	19.5 µM	35.6 µM	14.8 µM	30.1 µM	1.88 µM	4.48 µM	19.9 µM	52.8 µM	29.8 µM	82.3 µM	13.7 µM	26.9 µM	17.8 µM	32.6 µM	14 µM	27.9 µM	12.1 µM	33 µM	15.4 µM	98.1 µM
COc1cc2nc(SCc3cc(OC)c(OC)c(OC)c3)n(Cc3ccccc3)c(=O)c2cc1OC	10.8 µM	32.4 µM	4.45 µM	> 66 µM	2.5 µM	> 100 µM	2.55 µM	> 100 µM	2.49 µM	11.7 µM	3.22 µM	50.5 µM	0.375 µM	2.04 µM	3.27 µM	> 100 µM	2.09 µM	21.3 µM	2.76 µM	> 100 µM
[C](#Cc1ccccc1)[Hg][C]#Cc1ccccc1	23.8 µM	50.7 µM	20.8 µM	44.8 µM	35.5 µM	> 100 µM	94.1 µM	> 100 µM	> 100 µM	> 100 µM	24.3 µM	53.7 µM	43.2 µM	> 100 µM	30.6 µM	87.5 µM	> 100 µM	> 100 µM	14.1 µM	40.9 µM
COc1ccc2cc(/C=C/C(=O)c3ccc(Cl)cc3Cl)ccc2c1	77.9 µM	> 100 µM	27.3 µM	> 100 µM	24.1 µM	67 µM	29 µM	85.4 µM	83.3 µM	> 100 µM	21.6 µM	79.4 µM	25.4 µM	75.3 µM	44.7 µM	> 100 µM	39.3 µM	> 100 µM	–	–
O=C(/C=C/C12c3ccccc3C(c3ccccc31)C1C(=O)NC(=O)C12)c1ccc(Cl)cc1Cl (stereo unspecified)	1.9 µM	3.5 µM	2.31 µM	5.82 µM	2.19 µM	4.58 µM	1.76 µM	3.43 µM	1.78 µM	3.63 µM	1.67 µM	3.18 µM	1.98 µM	4.06 µM	1.55 µM	3.08 µM	2.76 µM	7.01 µM	2.02 µM	4.41 µM
Cc1[nH]nc(C(F)(F)F)c1N=NN(C)C	–	22.9 µM	–	25.4 µM	–	> 100 µM	–	29.3 µM	–	25.7 µM	–	20.6 µM	–	32.7 µM	–	25.1 µM	–	44.6 µM	–	34.1 µM
COC(=O)C1C(O)CCC2CN3CCc4c([nH]c5ccccc45)C3CC21 (stereo unspecified)	–	> 100 µM	–	> 100 µM	–	> 100 µM	–	> 100 µM	–	> 100 µM	–	> 100 µM	–	> 100 µM	–	> 100 µM	–	> 100 µM	–	> 100 µM
COc1cc(F)c(F)c(Nc2ccc(I)cc2F)c1NS(=O)(=O)C1(C[C@H](O)CO)CC1	0.135 µM	> 10 µM	0.217 µM	> 9.46 µM	0.0591 µM	> 10 µM	0.371 µM	> 10 µM	> 5.78 µM	> 10 µM	0.0158 µM	0.172 µM	0.0659 µM	> 10 µM	> 6.75 µM	> 10 µM	> 5.43 µM	> 10 µM	0.0308 µM	> 10 µM
C=CCn1c(C)nc2ccc(Nc3nc(Nc4ccc(F)cc4)nc4ccccc34)cc21	6.83 µM	24.6 µM	2.37 µM	8.24 µM	2.8 µM	10.7 µM	4.07 µM	16.4 µM	6.08 µM	20.3 µM	1.8 µM	3.7 µM	4 µM	20.4 µM	3.14 µM	14.7 µM	9.83 µM	56.7 µM	3 µM	13.3 µM
COc1ccc(/C=C/C(=O)/C=C/c2cc3ccccc3[nH]c2=O)cc1	5.45 µM	17.4 µM	2.87 µM	10.9 µM	1.89 µM	4.56 µM	2.62 µM	6.95 µM	2.65 µM	8.02 µM	2.43 µM	9.41 µM	2.22 µM	5.07 µM	2.38 µM	7.81 µM	3.14 µM	47 µM	2.47 µM	5.94 µM
CC(=O)Oc1ccc(C23c4ccccc4C2(OC(C)=O)c2cc(OC(C)=O)ccc23)cc1 (stereo unspecified)	6.23 µM	> 100 µM	6 µM	33.1 µM	3.73 µM	12.7 µM	3.34 µM	11.2 µM	4.37 µM	20.4 µM	3.69 µM	13.7 µM	4.9 µM	25.6 µM	3 µM	11.9 µM	2.93 µM	> 100 µM	39.7 µM	> 100 µM
COc1cccc(/C(C#N)=C/c2nc3c(N4CCOCC4)nc(Cl)nc3n2C)c1	–	–	1.38 µM	2.82 µM	0.429 µM	1.7 µM	1.77 µM	3.53 µM	2.47 µM	7.88 µM	1.2 µM	2.47 µM	1.25 µM	2.61 µM	1.06 µM	2.98 µM	1.59 µM	5.88 µM	0.351 µM	1.36 µM
